Results taken from patent publication US8796289B2 (AbbVie Inc., priority 2011, dated 2014).
pKi: −log10 of the molar value.

target: GST-tagged-Wee1 kinase (Homo sapiens, UniProt P30291); assay: Wee1 time-resolved fluorescence equilibrium binding assay (displacement of Oregon Green-labeled ATP-competitive kinase probe); settings: not given
Experimental: Wee1 kinase was assayed using a time-resolved fluorescence equilibrium binding assay monitoring displacement of a rapidly reversible Oregon Green-labeled ATP-competitive kinase probe (N-(2-(2-(2-(4-(4-(5-chloro-4-(2-(1-hydroxycyclobutyl)thiazol-5-yl)-1H-pyrrolo[2,3-b]pyridin-2-yl)phenyl)piperazin-1-yl)ethoxy)ethoxy)ethyl)-2′,7′-difluoro-3′,6′-dihydroxy-3-oxo-3H-spiro[isobenzofuran-1,9′-xanthene]-5-carboxamide) by competitive Wee1 inhibitors.

Chain of GST-tagged-Wee1 kinase (P30291 whole entry): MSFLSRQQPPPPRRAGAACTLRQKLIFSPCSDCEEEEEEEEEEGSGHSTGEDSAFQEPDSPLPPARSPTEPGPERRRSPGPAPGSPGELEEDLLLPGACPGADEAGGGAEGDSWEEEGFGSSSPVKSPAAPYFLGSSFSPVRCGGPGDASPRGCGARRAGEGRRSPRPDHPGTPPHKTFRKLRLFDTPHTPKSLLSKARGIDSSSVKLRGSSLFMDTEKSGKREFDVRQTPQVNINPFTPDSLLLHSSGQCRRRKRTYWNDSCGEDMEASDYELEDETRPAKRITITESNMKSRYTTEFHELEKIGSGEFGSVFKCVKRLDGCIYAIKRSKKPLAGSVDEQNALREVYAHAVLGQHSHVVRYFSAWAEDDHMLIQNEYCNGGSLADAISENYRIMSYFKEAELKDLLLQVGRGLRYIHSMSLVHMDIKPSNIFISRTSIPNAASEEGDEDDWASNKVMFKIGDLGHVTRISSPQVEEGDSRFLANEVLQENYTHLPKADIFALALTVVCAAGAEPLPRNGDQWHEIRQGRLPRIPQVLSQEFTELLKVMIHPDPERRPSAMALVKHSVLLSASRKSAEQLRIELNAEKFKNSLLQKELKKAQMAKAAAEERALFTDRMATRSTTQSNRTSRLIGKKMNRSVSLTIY

Going from `Cc1nn(C)c(=O)c2cnc(Nc3ccc(N4CCN(C)CC4)cc3)nc12` [Example 1, 6,8-dimethyl-2-{[4-(4-methylpiperazin-1-yl)phenyl]amino}pyrimido[4,5-d]pyridazin-5(6H)-one] to `CCCc1nn(C)c(=O)c2cnc(Nc3ccc(N4CCN(C)CC4)cc3)nc12` [Example 11, 6-methyl-2-{[4-(4-methylpiperazin-1-yl)phenyl]amino}-8-propylpyrimido[4,5-d]pyridazin-5(6H)-one], the pKi rises from 5.72 to 6.14 (0.42 log units). The second binds more tightly here.

`C=CCn1nc(C)c2nc(Nc3ccc(N4CCN(C)CC4)cc3)ncc2c1=O` [Example 2, 6-allyl-8-methyl-2-{[4-(4-methylpiperazin-1-yl)phenyl]amino}pyrimido[4,5-d]pyridazin-5(6H)-one] and `C=CCn1nc(CCC)c2nc(Nc3ccc(N4CCN(C)CC4)cc3)ncc2c1=O` [Example 16, 6-allyl-2-{[4-(4-methylpiperazin-1-yl)phenyl]amino}-8-propylpyrimido[4,5-d]pyridazin-5(6H)-one] are within 0.2 log units of each other in pKi: 6.85 for the first, 6.89 for the second.

Compared with `CN1CCN(c2ccc(Nc3ncc4c(=O)n(C)nc(-c5ccccc5)c4n3)cc2)CC1` [Example 3, 6-methyl-2-{[4-(4-methylpiperazin-1-yl)phenyl]amino}-8-phenylpyrimido[4,5-d]pyridazin-5(6H)-one], `C=CCn1nc(-c2ccccc2)c2nc(Nc3ccc(N4CCN(C)CC4)cc3)ncc2c1=O` [Example 5, 6-allyl-2-{[4-(4-methylpiperazin-1-yl)phenyl]amino}-8-phenylpyrimido[4,5-d]pyridazin-5(6H)-one] is 1.48 log units higher in pKi: 6.74 for the first, 8.22 for the second. The second binds more tightly here.

Compared with `CN1CCN(c2ccc(Nc3ncc4c(=O)[nH]nc(-c5ccccc5)c4n3)cc2)CC1` [Example 4, 2-{[4-(4-methylpiperazin-1-yl)phenyl]amino}-8-phenylpyrimido[4,5-d]pyridazin-5(6H)-one], `CN1CCN(c2ccc(Nc3ncc4c(=O)n(-c5ccccc5)nc(-c5ccccc5)c4n3)cc2)CC1` [Example 27, 2-{[4-(4-methylpiperazin-1-yl)phenyl]amino}-6,8-diphenylpyrimido[4,5-d]pyridazin-5(6H)-one] is 1.10 log units higher in pKi: 7.60 for the first, 8.70 for the second. The second binds more tightly here.

Compared with `CN1CCN(c2ccc(Nc3ncc4c(=O)n(C)nc(CCc5ccccc5)c4n3)cc2)CC1` [Example 6, 6-methyl-2-{[4-(4-methylpiperazin-1-yl)phenyl]amino}-8-(2-phenylethyl)pyrimido[4,5-d]pyridazin-5(6H)-one], `C=CCn1nc(CCc2ccccc2)c2nc(Nc3ccc(N4CCN(C)CC4)cc3)ncc2c1=O` [Example 7, 6-allyl-2-{[4-(4-methylpiperazin-1-yl)phenyl]amino}-8-(2-phenylethyl)pyrimido[4,5-d]pyridazin-5(6H)-one] is 0.43 log units higher in pKi: 6.17 for the first, 6.60 for the second.

Going from `CN1CCN(c2ccc(Nc3ncc4c(=O)n(CCC#N)nc(CCc5ccccc5)c4n3)cc2)CC1` [Example 8, 3-[2-{[4-(4-methylpiperazin-1-yl)phenyl]amino}-5-oxo-8-(2-phenylethyl)pyrimido[4,5-d]pyridazin-6(5H)-yl]propanenitrile] to `CN1CCN(c2ccc(Nc3ncc4c(=O)n(CC(F)(F)F)nc(CCc5ccccc5)c4n3)cc2)CC1` [Example 10, 2-{[4-(4-methylpiperazin-1-yl)phenyl]amino}-8-(2-phenylethyl)-6-(2,2,2-trifluoroethyl)pyrimido[4,5-d]pyridazin-5(6H)-one], the pKi falls from 6.43 to under 5.50. The first binds more tightly here.

`CN1CCN(c2ccc(Nc3ncc4c(=O)n(-c5ccccc5)nc(CCc5ccccc5)c4n3)cc2)CC1` [Example 9, 2-{[4-(4-methylpiperazin-1-yl)phenyl]amino}-6-phenyl-8-(2-phenylethyl)pyrimido[4,5-d]pyridazin-5(6H)-one] and `CN1CCN(c2ccc(Nc3ncc4c(=O)n(-c5ccccc5)nc(Cc5ccccc5)c4n3)cc2)CC1` [Example 19, 8-benzyl-2-{[4-(4-methylpiperazin-1-yl)phenyl]amino}-6-phenylpyrimido[4,5-d]pyridazin-5(6H)-one] are within 0.2 log units of each other in pKi: 7.21 for the first, 7.14 for the second.

Going from `Cc1ccccc1-n1nc(CCc2ccccc2)c2nc(Nc3ccc(N4CCN(C)CC4)cc3)ncc2c1=O` [Example 12, 6-(2-methylphenyl)-2-{[4-(4-methylpiperazin-1-yl)phenyl]amino}-8-(2-phenylethyl)pyrimido[4,5-d]pyridazin-5(6H)-one] to `Cc1ccccc1-n1nc(Cc2ccccc2)c2nc(Nc3ccc(N4CCN(C)CC4)cc3)ncc2c1=O` [Example 20, 8-benzyl-6-(2-methylphenyl)-2-{[4-(4-methylpiperazin-1-yl)phenyl]amino}pyrimido[4,5-d]pyridazin-5(6H)-one], the pKi falls from 8.22 to 7.72 (0.50 log units).

Going from `CN1CCN(c2ccc(Nc3ncc4c(=O)n(C)nc(C5CCCC5)c4n3)cc2)CC1` [Example 13, 8-cyclopentyl-6-methyl-2-{[4-(4-methylpiperazin-1-yl)phenyl]amino}pyrimido[4,5-d]pyridazin-5(6H)-one] to `C=CCn1nc(C2CCCC2)c2nc(Nc3ccc(N4CCN(C)CC4)cc3)ncc2c1=O` [Example 15, 6-allyl-8-cyclopentyl-2-{[4-(4-methylpiperazin-1-yl)phenyl]amino}pyrimido[4,5-d]pyridazin-5(6H)-one], the pKi rises from 6.21 to 6.60 (0.39 log units).

Going from `CN1CCN(c2ccc(Nc3ncc4c(=O)[nH]nc(C5CCCC5)c4n3)cc2)CC1` [Example 14, 8-cyclopentyl-2-{[4-(4-methylpiperazin-1-yl)phenyl]amino}pyrimido[4,5-d]pyridazin-5(6H)-one] to `CCCc1nn(CCC#N)c(=O)c2cnc(Nc3ccc(N4CCN(C)CC4)cc3)nc12` [Example 21, 3-[2-{[4-(4-methylpiperazin-1-yl)phenyl]amino}-5-oxo-8-propylpyrimido[4,5-d]pyridazin-6(5H)-yl]propanenitrile], the pKi rises from 5.96 to 6.46 (0.50 log units). The second binds more tightly here.

First: CCCc1nn(-c2ccccc2)c(=O)c2cnc(Nc3ccc(N4CCN(C)CC4)cc3)nc12 [Example 17, 2-{[4-(4-methylpiperazin-1-yl)phenyl]amino}-6-phenyl-8-propylpyrimido[4,5-d]pyridazin-5(6H)-one]
Second: CCCc1nn(-c2ccccc2C)c(=O)c2cnc(Nc3ccc(N4CCN(C)CC4)cc3)nc12 [Example 18, 6-(2-methylphenyl)-2-{[4-(4-methylpiperazin-1-yl)phenyl]amino}-8-propylpyrimido[4,5-d]pyridazin-5(6H)-one]
The pKi of the first is 0.96 log units lower: 7.44 for the first, 8.40 for the second.

Compared with `C=CCn1nc(Cc2ccccc2)c2nc(Nc3ccc(N4CCN(C)CC4)cc3)ncc2c1=O` [Example 22], `CN1CCN(c2ccc(Nc3ncc4c(=O)n(-c5ccccc5Cl)nc(Cc5ccccc5)c4n3)cc2)CC1` [Example 26, 8-benzyl-6-(2-chlorophenyl)-2-{[4-(4-methylpiperazin-1-yl)phenyl]amino}pyrimido[4,5-d]pyridazin-5(6H)-one] is 1.77 log units higher in pKi: 6.15 for the first, 7.92 for the second.

Going from `CCCc1nn(CC(F)(F)F)c(=O)c2cnc(Nc3ccc(N4CCN(C)CC4)cc3)nc12` [Example 23, 2-{[4-(4-methylpiperazin-1-yl)phenyl]amino}-8-propyl-6-(2,2,2-trifluoroethyl)pyrimido[4,5-d]pyridazin-5(6H)-one] to `CCCc1nn(-c2ccccc2Cl)c(=O)c2cnc(Nc3ccc(N4CCN(C)CC4)cc3)nc12` [Example 25, 6-(2-chlorophenyl)-2-{[4-(4-methylpiperazin-1-yl)phenyl]amino}-8-propylpyrimido[4,5-d]pyridazin-5(6H)-one], the pKi rises from 6.43 to 9.00 (2.57 log units). The second binds more tightly here.

First: CN1CCN(c2ccc(Nc3ncc4c(=O)n(-c5ccccc5Cl)nc(CCc5ccccc5)c4n3)cc2)CC1 [Example 24, 6-(2-chlorophenyl)-2-{[4-(4-methylpiperazin-1-yl)phenyl]amino}-8-(2-phenylethyl)pyrimido[4,5-d]pyridazin-5(6H)-one]
Second: CN1CCN(c2ccc(Nc3ncc4c(=O)n(-c5ccccc5Cl)nc(-c5ccccc5)c4n3)cc2)CC1 [Example 29, 6-(2-chlorophenyl)-2-{[4-(4-methylpiperazin-1-yl)phenyl]amino}-8-phenylpyrimido[4,5-d]pyridazin-5(6H)-one]
The pKi of the first is lower: 8.70 for the first, over 9.00 for the second. The second binds more tightly here.

Compound `Cc1ccccc1-n1nc(-c2ccccc2)c2nc(Nc3ccc(N4CCN(C)CC4)cc3)ncc2c1=O` [Example 28, 6-(2-methylphenyl)-2-{[4-(4-methylpiperazin-1-yl)phenyl]amino}-8-phenylpyrimido[4,5-d]pyridazin-5(6H)-one] has a pKi of 9.10.

same assay, conditions: read-out: Wee-1 inhibition Ki

First: 3-{[6-(2,6-dichlorophenyl)-8-methyl-5-oxo-5,6-dihydropyrimido[4,5-d]pyridazin-2-yl]amino}benzoic acid [Example 521]
Second: 6-(2,6-dichlorocyclohexa-1,5-dien-1-yl)-2-[(3-{[2-(dimethylamino)ethyl]amino}phenyl)amino]-8-methylpyrimido[4,5-d]pyridazin-5(6H)-one [Example 514]
The pKi of the first is 2.38 log units lower: 7.01 for the first, 9.39 for the second. The second binds more tightly here.

First: 6-(2,6-dichlorophenyl)-8-(3-furyl)-2-{[4-(4-methylpiperazin-1-yl)phenyl]amino}pyrimido[4,5-d]pyridazin-5(6H)-one [Example 95]
Second: 6-(2-chlorophenyl)-2-{[4-(4-isopropylpiperazin-1-yl)-3-methylphenyl]amino}-8-(2-thienyl)pyrimido[4,5-d]pyridazin-5(6H)-one [Example 166]
The pKi of the first is 0.90 log units higher: 10.00 for the first, 9.10 for the second.

First: 6-(2-chlorophenyl)-2-{[4-(4-methylpiperazin-1-yl)phenyl]amino}-8-(1-methyl-1H-pyrazol-4-yl)pyrimido[4,5-d]pyridazin-5(6H)-one [Example 86]
Second: 6-(2-chlorophenyl)-8-(2-furyl)-2-{[4-(4-methylpiperazin-1-yl)phenyl]amino}pyrimido[4,5-d]pyridazin-5(6H)-one [Example 33]
The pKi of the first is 0.52 log units lower: 9.00 for the first, 9.52 for the second. The second binds more tightly here.

Compared with “6-(2-chlorophenyl)-8-(6-chloropyridin-2-yl)-2-{[4-(4-methylpiperazin-1-yl)phenyl]amino}pyrimido[4,5-d]pyridazin-5(6H)-one [Example 77]”, “8-(6-chloropyridin-2-yl)-6-(2,6-dichlorophenyl)-2-{[4-(4-methylpiperazin-1-yl)phenyl]amino}pyrimido[4,5-d]pyridazin-5(6H)-one [Example 75]” is 0.95 log units higher in pKi: 9.15 for the first, 10.10 for the second.
